Results as given in patent US20250360091A1, “COMBINATION OF SGLT2 INHIBITOR AND MENTHOL AND USE THEREOF IN TREATMENT OF HEART DISEASE” (EAST CHINA UNIVERSITY OF SCIENCE AND TECHNOLOGY, priority 2023, published 2025).

Assays:
[1] = system: ISO-induced heart failure model; experiment: Isoproterenol-induced heart failure model (Example 3); format: in vivo, C57/6J male mice; details: for cardiac function (ejection fraction, fractional shortening, echocardiography): gavage daily, day 15
Experimental: Isoproterenol hydrochloride is a commonly used inducer for establishing a heart failure model. Subcutaneous injection of isoproterenol hydrochloride can accelerate the heart rate of mice, cause the myocardium to continue to contract strongly, increase myocardial oxygen consumption, increase the heart load, and eventually cause heart failure.
Preferably, 50 µM of empagliflozin and 200 μM of menthol were converted into a mass ratio of about 1:1.5 according to the molar molecular weight. The dose of empagliflozin was set at 10 mg/kg and 30 mg/kg, and the pharmaceutical composition was set as the 10 mg/kg empagliflozin+15 mg/kg menthol group. In addition, in order to determine the extent to which the combination of menthol can reduce the effective dose of empagliflozin, a combination of menthol at a dose of 15 mg/kg and empagliflozin at a dose of 5 mg/kg was administered, resulting in the empagliflozin 5 mg/kg+menthol 15 mg/kg group.
Specifically, C57/6J male mice with an average body weight of about 21-22 g were divided into 7 groups (sham group, ISO group, empagliflozin 30 mg/kg group (E30), empagliflozin 10 mg/kg group (E10), menthol 15 mg/kg group (M15), empagliflozin 10 mg/kg+menthol 15 mg/kg group (E10+M15), empagliflozin 5 mg/kg+menthol 15 mg/kg group (E5+M15)), with 8 mice in each group. The mice were given drugs by gavage every morning, and the solvent was DMSO (the content was less than 5%, and menthol and empagliflozin solution were mixed in equal volumes and then gavaged into the mice). The sham group and ISO group were gavaged with an equal amount of drinking water every morning.
Isoproterenol hydrochloride was injected subcutaneously twice a day, in the morning and evening, with a dose of 40 mg/kg on days 1-2, 20 mg/kg on days 3-7, and 10 mg/kg on days 8-14. […]
On the 15th day, the Visual-Sonics Vevo 3100 small animal high-resolution micro-ultrasound imaging system was used to evaluate the cardiac structure and function of the experimental mice in each group. Three cardiac cycles were taken to measure the systolic interventricular septum thickness (IVSs), diastolic interventricular septum thickness (IVSd), left ventricular systolic inner diameter (LVIDs), left ventricular diastolic inner diameter (LVIDd), systolic left ventricular posterior wall thickness (LVPWs), and diastolic left ventricular posterior wall thickness (LVPWd), and the ejection fraction (EF, %) and fractional shortening (FS, %) were calculated. […] ImageJ was used to quantify the fibrosis area and calculate the degree of cardiac fibrosis. Graph Pad software was used for data processing and significant differences were calculated (OneWayANOVA was used between multiple groups, and Student's t test was used between two groups).

[2] = system: Rat cardiomyocytes (H9c2); experiment: GD-induced myocardial cell damage model, CCK-8, SGLT2 inhibitors with L-menthol (Example 9); format: cell-based; details: single drugs: SGLT2 inhibitor 50 μM or menthol 200 μM; GD 36-48 h; untreated group 54.7%
Experimental: In this example, the protective effect of the drug composition on myocardial cells was evaluated by using a GD-induced myocardial cell damage model. […] Rat cardiomyocytes (H9c2) were purchased from the Chinese Academy of Sciences Stem Cell Bank. The cardiomyocytes were cultured in high-glucose DMEM medium (Gibco, 11995-065) containing 10% fetal bovine serum and 1% penicillin/streptomycin, and incubated in a 37° C., 5% CO2 incubator. […] When the cells reached confluence, the DMEM medium was removed, and the cells were washed once with PBS. […] The synergistic coefficient was calculated using the Zero interaction dose model, with the formula: CI=(EAB−EA*EB)/(EA+EB−EA*EB), wherein CI is the synergistic effect index, EAB is the efficacy index of the combination of drugs, and EA and EB are the efficacy indices of the individual drugs, respectively.

[3] = system: Rat myocardial cells (H9c2); experiment: Glucose deprivation (GD)-induced myocardial cell injury model, cck8 cell survival, checkerboard (Example 1); format: cell-based; details: empagliflozin used alone; GD 36-48 h
Experimental: In this example, a glucose deprivation (GD)-induced myocardial cell injury model was used to evaluate the protective effect of the drug composition on myocardial cells. Rat myocardial cells (H9c2) were purchased from the stem cell bank of the Chinese Academy of Sciences. Myocardial cells were cultured in high-glucose DMEM (containing 10% fetal bovine serum, 1% penicillin/streptomycin) culture medium and placed in an incubator at 37° C. and 5% CO2. After the myocardial cells basically covered the cell culture dish (10 cm), the cells were digested with trypsin and planted in a 96-well plate at a cell density of 8000 cells/well, 100 μL per well. When the cells covered the bottom of the dish, the DMEM culture medium was removed and the plate was washed once with PBS. The compound was diluted to the target concentration with sugar-free and serum-free DMEM, added to the plate, and treated with GD. […] The cell survival rates of empagliflozin (EMPA) 0-100 μM, L-menthol (MEN) 0-200 μM and combined concentrations were tested, and the cell survival rates of single drugs and combined drugs were input into CompuSyn (http://www.combosyn.com) to calculate the synergistic coefficient.

[4] = system: H9c2 cells; experiment: GD-induced injury: LDH release and crystal violet staining (Example 2); format: cell-based, Rat; details: empagliflozin 100 μM and 200 μM; GD 48 h
Experimental: To further verify the anti-heart failure efficacy of the drug composition, H9c2 cells were seeded into 24-well plates. After the cells covered the bottom of the dish, the high-glucose DMEM was removed, the plate was washed once with PBS, and empagliflozin alone and different concentrations of the drug composition were prepared with sugar-free and serum-free DMEM medium, and added to the cells for glucose deprivation treatment. For the GD group, sugar-free and serum-free DMEM medium without drugs was added. For the NG group, high-glucose DMEM containing serum was continued to be added for culture. After 48 hours of glucose deprivation treatment, 50 μL of culture medium was taken to a 96-well plate, and the release of LDH in the culture medium was detected using an LDH detection kit. The culture medium was removed, the cells were placed on ice, and washed twice with pre-cooled PBS for 3 to 5 minutes each time. The cells were fixed with pre-cooled methanol at −20° C. for 10 minutes. Methanol was removed and the cells were returned to room temperature. […] The cells were placed in a 37° C. oven for drying, photographed under a microscope, and the staining was quantified by Image J. The larger the purple area, the more cells survived, and the more LDH was released, which indicated more cell damage. […]

[5] = system: PGC-1α, PPARα, CPT1b; experiment: Western blotting of fatty acid metabolism proteins (Example 6); format: cell-based, Rat; details: 48 h; menthol 200 μM alone or 50 μM empagliflozin + 200 μM menthol
Experimental: 2. Western blotting. H9c2 cells were seeded in a 12-well plate. After 48 hours of drug treatment, the cells were harvested and the total protein in the cells was extracted with RIPA lysis buffer. After BCA quantification, 4× loading buffer was added and boiled in a 95° C. metal bath for 10 minutes to denature the protein. 5-10 μg of the denatured protein sample was added to SDS-PAGE. After electrophoresis, separation, transfer, and blocking, PGC-1α, PPARα, CPT1b, and GAPDH primary antibody were added and incubated overnight at 4° C. The next day, the primary antibody was recovered, and the corresponding secondary antibody was added and incubated at room temperature for 1 hour. After washing three times, ECL chemiluminescent solution was added to the strips, and immunoblotting analysis was performed using a Tanon gel imager. ImageJ software was used to perform grayscale analysis of the immunoblot bands, GAPDH was used as an internal reference for correction, and the relative expression content of the protein was calculated. The experiment was divided into DMSO group (DMSO treatment group with content not exceeding 0.5%), E50 (50 μM EMPA treatment group), M200 (200 μM menthol treatment group), and E50+M200 (50 μM empagliflozin+200 μM menthol treatment group).

Structure (SMILES)	cardiac function (ejection fraction, fractional shortening, echocardiography) ([1]; empagliflozin 10 mg/kg)	myocardial fibrosis (Masson staining area) ([1]; empagliflozin 30 mg/kg)	cardiac function (ejection fraction, fractional shortening, echocardiography) ([1]; empagliflozin 30 mg/kg)	cell survival rate [2]	effective concentration of empagliflozin (cell survival) [3]	cell survival rate (crystal violet purple area, LDH release) [4]	cardiac function (ejection fraction, fractional shortening, echocardiography) ([1]; menthol 15 mg/kg)	expression of PCG-1α/PPARα [5]	expression of fatty acid transporter CPT1b [5]
OC[C@H]1O[C@@H](c2ccc(Cl)c(Cc3ccc(O[C@H]4CCOC4)cc3)c2)[C@H](O)[C@@H](O)[C@@H]1O [empagliflozin]	cannot significantly improve the cardiac function	significantly reduce myocardial fibrosis	can effectively improve	64.5%	50 µM	significantly increases the cell survival rate in a dose-dependent manner	–	–	–
CC(C)[C@@H]1CC[C@@H](C)C[C@H]1O [menthol, L-menthol]	–	–	–	56.7%	–	–	slightly improved the cardiac function of mice with heart failure at a dose of 15 mg/kg, but there is no significant difference	significantly increase the expression	upregulate the expression
